Assay results from patent publication US12269808B2, “Amino dithioperacid thioester compound, preparation method therefor, and use thereof” (FUDAN UNIVERSITY, priority 2019, dated 2025).

Experiments:
[1] = test system: mouse myoblasts (C2C12) myotubes; assay: C2C12 myotube atrophy induced by C26 cell culture medium (HE staining, myotube diameter); assay type: cell-based; conditions: for Myotube atrophy reversal rate (%): 48 h, C26 medium-induced C2C12 myotubes
Source text: Carbamo(dithioperoxo)thioate analogs alleviate mouse myoblasts (C2C12) atrophy induced by mouse colon cancer cell (C26).
The diameter measurement method was used to evaluate the diameter of myotubes differentiated from mouse myoblasts (C2C12). The staining method used in the experiment was hematoxylin-eosin staining, referred to as HE staining. The hematoxylin stain is alkaline, positively charged, and easily binds to negatively charged and acidic deoxyribonucleic acid (DNA) in the nucleus with ionic bonding to show blue; while eosin is an acidic dye that dissociates into negatively charged anions in water and easily binds to the positively charged amino groups of proteins in the cytoplasm to show red. The stained cells were placed under a high-magnification microscope to take photos (magnification power: 400), and the diameter of myotubes could be counted using image J software.
The above method allows to evaluate the effect of the drug on the muscle atrophy cell model. The specific method is as follows.
C2C12 cells were seeded in 24-well plates in a culture medium of high-glucose DMEM medium containing 10% FBS and 1% P/S, and placed in a 5% CO2, 37° C. environment. When the cell density reaches 50%˜60%, the culture medium was changed into 2% HS differentiation medium (high-glucose DMEM medium containing 2% HS and 1% P/S); the differentiation medium was changed every 48 h until mature on day 5 or day 6. In addition, C26 cells were inoculated in T75 flasks, and the culture medium was changed into high-glucose DMEM medium containing 10% FBS and 1% P/S, and placed in a 5% CO2, 37° C. environment. While C26 cells (6×10^6 cells/flasks) were passaged, add 20 mL of culture medium to sequentially subculture for 48 h. To obtain the C26 supernatant, centrifuge C26 culture medium at 1000 rpm for 3 min and then at 4000 rpm for 10 min successively. The C26 supermatant and 2% HS differentiation medium were mixed 1:1 (volume ratio) as a muscle atrophy inducing medium. Except for the control group with 2% HS differentiation medium, other each group was added with the equal amounts of muscle atrophy-inducing medium and one group was used as the model group, and the rest groups were used as the experimental groups for drug administration. At the same time, carbamo(dithioperoxo)thioate compounds were added into the cells at the following gradient concentrations.
Wherein, the serial numbers correspond to the numbers of the accompanying figures, that is, FIG. 1-46 correspond to the samples of serial numbers 1-46 in Table 1. μM refers to μmol/L.
Myotube diameter was measured as follows.
After 48 h of action, the myotubes were fixed with fixative solution (anhydrous ethanol:formaldehyde:glacial acetic acid volume ratio=20:2:1) for more than 1 h, stained using hematoxylin-eosin staining method, and placed under a high-magnification microscope to acquire images and counted the diameter of myotubes using image J. The muscle atrophy reversal rate was calculated according to the following equation. Muscle atrophy reversal rate=(Average value of myotubes in drug administration group−Average value of myotubes in model group)/(Average value of myotubes in control group−Average value of myotubes in model group)×100%

[2] = test system: 3T3-L1 adipocytes; assay: 3T3-L1 adipocyte lipolysis induced by C26 medium (glycerol assay); assay type: cell-based, mouse; conditions: for glycerol content: 48 h, control 287.44 μM, model 441.95 μM
Source text: Experimental results of compound 4 alleviating 3T3-L1 adipocytes lipolysis.
Glycerol assay was used to evaluate intracellular lipid content. Glycerol kinase phosphorylates glycerol to glycerol 3-phosphate; glycerol 3-phosphate is oxidized by glycerophosphate oxidase to produce hydrogen peroxide; the chromogenic substrate is converted to benzoquinone imine in the presence of peroxidase, and its optical density value is proportional to the glycerol concentration.
The above methods allow to evaluate the effect of drugs on the fat lipolysis cell model. The methods are as follows:
3T3-L1 cells were seeded in 6-well plates in a culture medium (high-glucose DMEM medium containing 10% FBS and 1% P/S) and placed in a 5% CO2, 37° C. environment. The cells were allowed to grow to 100% confluence and continued to fuse for 3 days to start the differentiation operation. The culture medium for the first differentiation was high-glucose DMEM medium containing 0.5 mM IBMX, […], 1 μM dexamethasone and 10% FBS and 1% P/S, and then differentiated 3T3-L1 adipocytes for 72 h; The culture medium for the second differentiation was high-glucose DMEM medium containing […] and 10% FBS, and 1% P/S, and then differentiated 3T3-L1 adipocytes for 72 h; the culture medium for the third differentiation was high-glucose DMEM medium containing 10% FBS, and 1% P/S, and then differentiated 3T3-L1 for 72 h; After successful differentiation, it was obvious that there were a large number of oil droplets in the cells. In addition, C26 cells were inoculated in T75 flasks in the culture medium (high-glucose DMEM medium containing 10% FBS, and 1% P/S) and placed in a 5% CO2, 37° C. environment. While C26 cells (6×10^6 cells/flask) were passaged, add 15 mL of phenol red-free high-glucose DMEM culture medium to the T75 flask with 100% confluent C26 cells and sequentially subculture for 48 h. To obtain the supernatant, centrifuge C26 culture medium at 1000 rpm for 3 min and at 4000 rpm for 10 min successively, and take the supernatant to obtain the C26 supernatant successively. The C26 supernatant was mixed with phenol red-free high-glucose DMEM medium at 1:1 ratio as a fat lipolysis-inducing medium. Except for the control group with phenol red-free high-glucose DMEM medium, the other each group was added with the same amount of fat lipolysis-inducing liquid; one group was used as the model group, and the rest groups were used as the experimental groups for drug administration. At the same time, compound 4 stock solution was also added into the cells at the following concentrations of 12.5 μM, 25 μM, 50 μM, 100 μM.
The glycerol detection method was performed as follows: after 48 h of action, the glycerol content in the supernatant was detected using the glycerol detection kit from Beijing Applygen Gene Technology Co., Ltd.

With CCCCCCCCCCCCSSC(=S)N1CCCC1 [Compound 4] the “Myotube atrophy reversal rate (%)” value ([1]; 3.125 μM) was 37.78%, the “Myotube atrophy reversal rate (%)” value ([1]; 6.25 μM) was 54.53% and the “cytotoxicity (in words)” value ([1]; 12.5 μM) was “non-cytotoxic”. For the same compound, the “Myotube atrophy reversal rate (%)” value ([1]; 12.5 μM) was 92.83%, the “Myotube atrophy reversal rate (%)” value ([1]; 12.5 μM, listed as compound 4) was 92.83% and the glycerol content ([2]; 12.5 μM compound) was 379.44 µM. It also gave a glycerol content ([2]; 25 μM compound) of 347.14 µM, a glycerol content ([2]; 50 μM compound) of 313.67 µM and a glycerol content ([2]; 100 μM compound) of 310.95 µM. The “glycerol released from 3T3-L1 mature adipocytes (in words)” value ([2]; 12.5-100 μM, C26 cell culture medium induced) was “concentration-dependent reduction”.
